Assay results as given in patent publication US20240270720A1, “INDAZOLE YL BENZIMIDAZOLE DERIVATIVE OR PHARMACEUTICALLY ACCEPTABLE SALT THEREOF, AND USE THEREOF” (INDUSTRY-UNIVERSITY COOPERATION FOUNDATION HANYANG …, priority 2021, published 2024).
Positions count from the first letter of the chain named. Read-outs that look alike come from different tables or passages of the source.

Assays:
FLT3 wild type = molecular target: T1, FLT3 wild type (Homo sapiens, UniProt P36888); assay: Kinase HotSpot radiometric kinase assay (Reaction Biology); type: biochemical
T1 construct: purchased Reaction Biology Corp. (Kinase HotSpot service)
T1 sequence (P36888 27-993): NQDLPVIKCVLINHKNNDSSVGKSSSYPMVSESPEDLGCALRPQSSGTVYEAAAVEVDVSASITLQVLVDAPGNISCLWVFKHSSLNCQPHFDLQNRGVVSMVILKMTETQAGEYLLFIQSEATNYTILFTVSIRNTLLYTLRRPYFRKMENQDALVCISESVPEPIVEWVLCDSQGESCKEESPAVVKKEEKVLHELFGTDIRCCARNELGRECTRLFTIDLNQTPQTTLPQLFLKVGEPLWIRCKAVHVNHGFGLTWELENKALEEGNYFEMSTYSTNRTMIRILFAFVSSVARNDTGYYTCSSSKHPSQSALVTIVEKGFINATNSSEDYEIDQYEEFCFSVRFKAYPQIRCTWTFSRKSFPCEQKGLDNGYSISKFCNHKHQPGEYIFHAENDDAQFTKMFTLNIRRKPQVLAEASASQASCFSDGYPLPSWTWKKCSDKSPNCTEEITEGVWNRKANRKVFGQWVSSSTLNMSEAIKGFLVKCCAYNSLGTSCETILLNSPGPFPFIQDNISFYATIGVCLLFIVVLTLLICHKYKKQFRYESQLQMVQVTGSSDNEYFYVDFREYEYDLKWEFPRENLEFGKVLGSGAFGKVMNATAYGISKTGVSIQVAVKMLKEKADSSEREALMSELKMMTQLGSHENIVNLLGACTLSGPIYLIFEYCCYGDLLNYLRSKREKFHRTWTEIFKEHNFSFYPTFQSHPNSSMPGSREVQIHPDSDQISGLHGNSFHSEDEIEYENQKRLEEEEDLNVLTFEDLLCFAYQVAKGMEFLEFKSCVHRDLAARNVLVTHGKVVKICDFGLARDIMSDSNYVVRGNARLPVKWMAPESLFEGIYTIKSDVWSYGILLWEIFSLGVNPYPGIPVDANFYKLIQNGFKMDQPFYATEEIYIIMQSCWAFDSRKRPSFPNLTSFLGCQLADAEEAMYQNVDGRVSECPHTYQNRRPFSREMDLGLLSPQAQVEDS
Experimental: (§1) Reaction Biology Corp. Kinase HotSpot SM service (www.reactionbiology.com) was used to determine IC50 values for all compounds and kinase profiles. The analysis protocol was as follows: In a final reaction volume of 25 μL, a peptide substrate, [[sequence]], 5 μM, ATP 10 μM, and FLT3(h) (5 to 10 mU) were incubated with 25 mM Tris pH 7.5, 0.02 mM EGTA, 0.66 mg/mL myelin basic protein, 10 mM Mg acetate and [γ-33P-ATP] (a concentration of approximately 500 cpm/pmol was required for specific activity). The reaction was initiated by adding the Mg-ATP mixture. After incubation at room temperature for 40 minutes, the reaction was stopped by adding 5 μL of a 3% phosphoric acid solution. Thereafter, 10 μL of the reactant was spotted on a P30 filter mat and washed three times for 5 minutes in 75 mM phosphoric acid and once in methanol before drying and scintillation counting.

FLT3 (D835Y) = molecular target: T2, FLT3 (D835Y) (Homo sapiens, UniProt P36888, D835Y); assay: as above
T2 sequence (P36888 27-993 D835Y): T1 sequence (P36888 27-993) with D809Y
Experimental: as §1

[1] = read-out: FLT3 (D835Y) IC50, Table 1

| SMILES | IC50 (FLT3 wild type; values given in nM, read-out: IC50 FLT3 wild type) [nM] | IC50 (FLT3 (D835Y)) [nM] | melting point [°C] | IC50 (FLT3 wild type; Table 1, read-out: FLT3 IC50) [nM] | IC50 (FLT3 (D835Y); [1]) [nM] |
| --- | --- | --- | --- | --- | --- |
| CCN1CCN(c2cc(C(=O)Nc3ccc4[nH]c(-c5ccc6cn[nH]c6c5)nc4c3)cc(C(F)(F)F)c2)CC1(C)C [Compound 8z, N-(2-(1H-indazol-6-yl)-1H-benzo[di]imidazol-5-yl)-3-(4-ethyl-3,3-dimethylpiperazine-1-yl)-5-(trifluoromethyl)benzamide] | 65.9 | ~10 | 153 to 154 |  |  |
| CCN1CCN(Cc2cc(C(=O)Nc3ccc4[nH]c(-c5ccc6cn[nH]c6c5)nc4c3)cc(C(F)(F)F)c2)CC1(C)C [Compound 8y, N-(2-(1H-indazol-6-yl)-1H-benzo[di]imidazol-5-yl)-3-((4-ethyl-3,3-dimethylpiperazine-1-yl)methyl)-5-(trifluoromethyl)benzamide] |  |  | 255 to 257 | 145 | 42 |
| Cc1nccn1-c1cc(C(=O)Nc2ccc3[nH]c(-c4ccc5cn[nH]c5c4)nc3c2)cc(C(F)(F)F)c1 [Compound 8c, N-(2-(1H-indazol-6-yl)-1H-benzo[di]imidazol-5-yl)-3-(2-methyl-1H-imidazol-1-yl)-5-(trifluoromethyl)benzamide] |  |  | 251 to 253 | 470 |  |
| CC(C)(C)c1cc(NC(=O)Nc2ccc3[nH]c(-c4ccc5cn[nH]c5c4)nc3c2)no1 [Compound 8l, 1-(2-(1H-indazol-6-yl)-1H-benzo[di]imidazol-5-yl)-3-(5-(tert-butyl)isoxazol-3-yl)urea] |  |  | 184 to 186 | 1170 |  |
| CN1CCN(c2cc(C(=O)Nc3ccc4[nH]c(-c5ccc6cn[nH]c6c5)nc4c3)cc(C(F)(F)F)c2)CC1 [Compound 8a, N-(2-(1H-indazol-6-yl)-1H-benzo[di]imidazol-5-yl)-3-(4-methylpiperazin-1-yl)-5-(trifluoromethyl)benzamide] |  |  | 228 to 230 | 181 | 21 |
| O=C(Nc1ccc2[nH]c(-c3ccc4cn[nH]c4c3)nc2c1)c1cc(CN2CCN(C3CC3)CC2)cc(C(F)(F)F)c1 [Compound 8q, N-(2-(1H-indazol-6-yl)-1H-benzo[di]imidazol-5-yl)-3-((4-cyclopropylpiperazin-1-yl)methyl)-5-(trifluoromethyl)benzamide] |  |  | 150 to 152 | 523 |  |
| CN(C)C1CCN(c2cc(C(=O)Nc3ccc4[nH]c(-c5ccc6cn[nH]c6c5)nc4c3)cc(C(F)(F)F)c2)C1 (centres unmarked) [Compound 8n, N-(2-(1H-indazol-6-yl)-1H-benzo[di]imidazol-5-yl)-3-(3-(dimethylamino)pyrrolidin-1-yl)-5-(trifluoromethyl)benzamide] |  |  | 283 to 285 | 287 |  |
| CN1CCC(Nc2cc(C(=O)Nc3ccc4[nH]c(-c5ccc6cn[nH]c6c5)nc4c3)cc(C(F)(F)F)c2)CC1 [Compound 8s, N-(2-(1H-indazol-6-yl)-1H-benzo[di]imidazol-5-yl)-3-((1-methylpiperidin-4-yl)amino)-5-(trifluoromethyl)benzamide] |  |  | 175 to 177 |  |  |
| O=C(Nc1ccc2[nH]c(-c3ccc4cn[nH]c4c3)nc2c1)c1cc(N2CCOCC2)cc(C(F)(F)F)c1 [Compound 8d, N-(2-(1H-indazol-6-yl)-1H-benzo[di]imidazol-5-yl)-3-morpholino-5-(trifluoromethyl)benzamide] |  |  | 195 to 196 | 1030 | 151 |
| CCN(CC)C1CCN(c2cc(C(=O)Nc3ccc4[nH]c(-c5ccc6cn[nH]c6c5)nc4c3)cc(C(F)(F)F)c2)C1 (centres unmarked) [Compound 8o, N-(2-(1H-indazol-6-yl)-1H-benzo[di]imidazol-5-yl)-3-(3-(diethylamino)pyrrolidin-1-yl)-5-(trifluoromethyl)benzamide] |  |  | 221 to 223 | 841 | 120 |
| CN1CCC(Oc2ccc(C(=O)Nc3ccc4[nH]c(-c5ccc6cn[nH]c6c5)nc4c3)cc2C(F)(F)F)CC1 [Compound 8x, N-(2-(1H-indazol-6-yl)-1H-benzo[di]imidazol-5-yl)-4-((1-methylpiperidin-4-yl)oxy)-3-(trifluoromethyl)benzamide] |  |  | 293 to 295 | 743 |  |
| O=C(Nc1ccc2[nH]c(-c3ccc4cn[nH]c4c3)nc2c1)c1ccc(N2CCOCC2)c(C(F)(F)F)c1 [Compound 8f, N-(2-(1H-indazol-6-yl)-1H-benzo[di]imidazol-5-yl)-4-morpholino-3-(trifluoromethyl)benzamide] |  |  | 202 to 204 | 2510 | 370 |
| CN1CCC[C@@H](Nc2cc(C(=O)Nc3ccc4[nH]c(-c5ccc6cn[nH]c6c5)nc4c3)cc(C(F)(F)F)c2)C1 [Compound 8v, N-(2-(1H-indazol-6-yl)-1H-benzo[di]imidazol-5-yl)-3-((1-methylpiperidin-3-yl)amino)-5-(trifluoromethyl)benzamide] |  |  | 213 to 214 |  |  |
| Cc1cn(-c2cc(C(=O)Nc3ccc4[nH]c(-c5ccc6cn[nH]c6c5)nc4c3)cc(C(F)(F)F)c2)cn1 [Compound 8b, N-(2-(1H-indazol-6-yl)-1H-benzo[di]imidazol-5-yl)-3-(4-methyl-1H-imidazol-1-yl)-5-(trifluoromethyl)benzamide] |  |  | 239 to 241 | 639 | 110 |
| CN1CCN(c2ccc(C(=O)Nc3ccc4[nH]c(-c5ccc6cn[nH]c6c5)nc4c3)cc2C(F)(F)F)CC1 [Compound 8e, N-(2-(1H-indazol-6-yl)-1H-benzo[di]imidazol-5-yl)-4-(4-methylpiperazin-1-yl)-3-(trifluoromethyl)benzamide] |  |  | 160 to 161 | 154 | 44 |
| CN1CCC(Oc2cc(C(=O)Nc3ccc4[nH]c(-c5ccc6cn[nH]c6c5)nc4c3)cc(C(F)(F)F)c2)CC1 [Compound 8u, N-(2-(1H-indazol-6-yl)-1H-benzo[di]imidazol-5-yl)-3-((1-methylpiperidin-4-yl)oxy)-5-(trifluoromethyl)benzamide] |  |  | 293 to 295 |  | 55 |
| CCN1CCN(Cc2ccc(C(=O)Nc3ccc4[nH]c(-c5ccc6cn[nH]c6c5)nc4c3)cc2C(F)(F)F)CC1 [Compound 8w, N-(2-(1H-indazol-6-yl)-1H-benzo[di]imidazol-5-yl)-4-((4-ethylpiperazin-1-yl)methyl)-3-(trifluoromethyl)benzamide] |  |  | 164 to 166 | 290 |  |
| COc1ccc(/C=C/C(=O)Nc2ccc3[nH]c(-c4ccc5cn[nH]c5c4)nc3c2)cc1 [Compound 8k, (E)-N-(2-(1H-indazol-6-yl)-1H-benzo[di]imidazol-5-yl)-3-(4-methoxyphenyl)acrylamide] |  |  | 206 to 208 | 761 |  |
| O=C(Nc1ccc2[nH]c(-c3ccc4cn[nH]c4c3)nc2c1)c1cnn(-c2ccccc2)c1C(F)(F)F [Compound 8g, N-(2-(1H-indazol-6-yl)-1H-benzo[di]imidazol-5-yl)-1-phenyl-5-(trifluoromethyl)-1H-pyrazole-4-carboxamide] |  |  | 258 to 260 | 1100 |  |
